The target of one assay is T1, MBP-MCL1 (Homo sapiens, UniProt Q07820, K194A/K197A/R201A).
T1 construct: 6xHis-TEV tag cleaved, MBP kept; E. coli
The assay can be described thus: isothermal titration calorimetry; crystal structure […] Å (soak). It is filed as binding. On the technique in general: ITC needs no label: the signal is the heat of the interaction.

For another assay, the target named is T2, MCL1 173–329 (Homo sapiens, UniProt Q07820).
T2 construct: residues 173-329 (no N-terminal region, no transmembrane domain), E. coli, 6xHis-Smt3 tag cleaved by Ulp-1, wild type
The assay can be described thus: isothermal titration calorimetry. It counts as binding.

For the next assay, the target named is MCL1 173–329 (human). In words: ITC; hNoxa (20–38) (400 μM or 300 μM) titrated into 25 μM MCL1 173–329 or MBP-MCL1; autoITC200, 25°C, 25 mM Hepes pH 7.4, 100 mM NaCl, 0.1 mM TCEP, 4% DMSO; n ≥ 3, averaged KD.
In assay [1] the target is T3, MBP-MCL1 (MBP, two-residue GS linker, MCL1 173–321 K194A/K197A/R201A) (human, UniProt Q07820 173-321, K194A | K197A | R201A).
T3 construct: two-residue linker between MBP and MCL1; MCL1, human, residues 173-321 with three alanine mutations in the disordered loop; only the 6XHis-Tev part was removed with TEV protease; Six of the seven deposited PDB entries hold this construct and one holds MCL1 173–321 without MBP; also called MBP-MCL1 fusion construct; MBP-MCL1 fusion protein; source: E. coli (Top 10 or BL21 (DE3)), purified (Ni2+ …)
The description is as above. Conditions: both partners purified.

T3 sequence (Q07820 other isoform, or with tags, fused parts or gaps with the stated changes): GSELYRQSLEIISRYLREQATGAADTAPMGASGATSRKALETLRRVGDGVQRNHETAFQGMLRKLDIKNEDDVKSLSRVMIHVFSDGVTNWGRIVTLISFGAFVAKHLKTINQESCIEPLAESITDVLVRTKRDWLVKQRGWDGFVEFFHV
Chain of MCL1 173–329 (human) (Q07820 173-329): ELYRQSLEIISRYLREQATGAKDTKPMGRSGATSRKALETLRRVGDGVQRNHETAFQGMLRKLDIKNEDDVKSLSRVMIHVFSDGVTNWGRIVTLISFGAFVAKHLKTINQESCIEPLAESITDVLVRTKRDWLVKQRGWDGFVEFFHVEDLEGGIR
T2 sequence (Q07820 173-329): as above
T1 sequence (Q07820 173-321 K194A/K197A/R201A): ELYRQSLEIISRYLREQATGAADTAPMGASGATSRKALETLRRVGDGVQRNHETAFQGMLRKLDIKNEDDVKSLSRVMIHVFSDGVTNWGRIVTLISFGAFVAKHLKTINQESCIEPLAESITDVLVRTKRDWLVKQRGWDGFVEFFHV

Regarding `O=C(O)c1sc2cc(F)ccc2c1Cl` [compound 4, fragment 4], the equilibrium dissociation constant (Kd) on MBP-MCL1 was 93 µM; at MCL1 173–329, 97 µM.

B1: hNoxa (20–38) (peptide, UniProt Q13794 20-38, looked up)
peptide: ELEVECATQLRRFGDKLNF
notes: Noxa, human, BH3 peptide, residues 20-38; also called BH3 peptide Noxa (20–38)
In the case of B1, the figures for the Kd (with MCL1 173–329 (human); in assay [1]) were 0.16 µM and 0.19 µM, respectively.

By Kd is commonly meant a measure of binding affinity in units of concentration.
